{
  "source": "patent US9102710B2",
  "about": "“Cyclic peptides binding CXCR4 receptor and relative medical and diagnostic uses” (IRCCS-ISTITUTO NAZIONALE PER LO STUDIO E LA CURA DEI TUMORI …, priority 2010, dated 2015)",
  "key": {"CXCR4 receptor": {"molecular_target": "T1, CXCR4 receptor (Homo sapiens, UniProt P61073)", "T1 construct": "a leukaemia T CD4+ cell line with a high expression of the CXCR4 receptor; endogenous in cells; host or cells: CCRF-CEM (printed also CCFR-CEM) leukaemia T CD4+ cells", "T1 sequence (P61073 whole entry)": "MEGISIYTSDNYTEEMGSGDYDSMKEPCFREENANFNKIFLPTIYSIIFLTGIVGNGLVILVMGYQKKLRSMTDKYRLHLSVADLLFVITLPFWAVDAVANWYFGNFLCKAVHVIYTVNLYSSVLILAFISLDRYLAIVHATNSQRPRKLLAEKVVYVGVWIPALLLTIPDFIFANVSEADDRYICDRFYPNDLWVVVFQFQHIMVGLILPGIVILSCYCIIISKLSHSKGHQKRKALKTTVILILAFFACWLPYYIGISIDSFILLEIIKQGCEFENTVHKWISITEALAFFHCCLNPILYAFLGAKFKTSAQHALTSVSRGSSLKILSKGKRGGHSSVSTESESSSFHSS", "experiment": "Cytofluorimetric determination of Ca2+ release in CCFR-CEM cells after stimulation with SDF-1α", "assay_type": "cell-based", "conditions": "compound 10 uM, read-out: reduction (inhibition) of Calcium release induced by SDF-1α", "text": "For all the subsequent in vitro examples, two cell lines were used: CCFR-CEM and PES 43; the first is a leukaemia T CD4+ cell line with a high expression of the CXCR4 receptor, grown in a RPMI 1640 culture medium enriched with 10% of Fetal Bovine Serum (FBS) inactivated with heat and 1% of L-Glutamine; the second is a cell line deriving from melanoma lung metastasis called PES43 with a high expression of the CXCR4 receptor, grown in Iscove's Modified Dulbecco's Medium (IMDM) supplemented with 10% of Fetal Bovine Serum (FBS) inactivated with heat and 1% of Penicillin-Streptomycin.\nThe determination of the release of intracellular Calcium was effected in CCFR-CEM cells. The cells (500,000 cells) were washed with PBS, resuspended in 1 ml of Loading Buffer (PBS 1×, 1 mM CaCl2, 1 mM MgCl2, 1% FBS inactivated with heat) at 37° C., and incubated with 4 ul of the calcium tracer FLUO3-AM (1 mg/ml; Sigma) and 4 ul of Pluronic Acid F-127 (1 mg/ml in 2% of DMSO; Invitrogen) in the dark for 30′ at 37° C. under stirring. In order to remove the excess FLUO3-AM, 3 ml of Loading Buffer are added, this is followed by a centrifugation for 5′ at 1,000-1,200 rpm. The pellet thus obtained is resuspended in 1 ml of Loading Buffer. […]"}, "[1]": {"test_system": "phosphorylation of ERK 1,2", "experiment": "p-ERK induction by Immunoblotting in PES43 cells", "assay_type": "cell-based, human", "conditions": "AMD3100 1 uM, SDF-1α 100 ng/ml", "method": "CXCL12 activates the phosphorylation of ERK and this phosphorylation is inhibited by both AMD3100 (1 uM), and by the peptides css:[C-WHR-C] (10 uM), css:[C-FFR-C] (10 uM), css:[C-FFR-C]-Nam (10 uM), css:[C-WYR-C]-AR (10 uM), RA-css:[C-RFF-C] (10 uM), RA-css:[C-RHW-C] (10 uM), abb:[β-Ala-WHR-β-Ala] (10 uM).\nThe activation of CXCR4 induces the transduction path of MAPK through the phosphorylation of ERK 1,2. For this reason, the modulation of the induction of P-ERK was evaluated in relation to treatment with SDF-1α (100 ng/ml), peptides (10 uM) and AMD3100 (1 uM).\nThe cells were deprived of serum for 24 hours and then stimulated with SDF-1α.\nThe human melanoma cells, PES43, grown on 100 mm plates, were treated with SDF-1α, for 2-5-7-10 minutes. The cells were then mechanically detached, lysed in a specific buffer to which protease inhibitors and phosphatase inhibitors were added (120 mM NaCl, 40 mM Hepes, 5 mM MgCl2, 1 mM EGTA, 0.5 mM EDTA, 0.6% Triton, 10% glycerol, […], 1 mM Na3VO4, 1 mM NaF). The cell lysates thus obtained (50 μg of total proteins) were first denatured with Laemmli 4× and then separated with SDS-PAGE on gel at 10% in the presence of a running buffer (Tris Base, Glycine, SDS); the proteins were subsequently transferred onto a nitrocellulose membrane in incubated with primary antibodies specific for the following proteins: phospho-ERK 1/2, total ERK. […]"}, "[2]": {"conditions": "cited from earlier work"}},
  "data": [
    {"compound": "c1cc(CN2CCCNCCNCCCNCC2)ccc1CN1CCCNCCNCCCNCC1", "note": "[AMD3100, 1,19-[1,4-phenylenebis(methylene)]-bis-1,4,8,11-azatetradecane]", "values": [
      {"measurement": "inhibition at 10 µM", "setting": "CXCR4 receptor", "value": 70, "unit": "%"},
      {"measurement": "inhibition of SDF-1α-activated phosphorylation of ERK", "setting": "[1]", "value": "inhibited"},
      {"measurement": "time of peak of increase in white blood cell series after administration", "setting": "[2]; healthy volunteers, Phase 1", "value": 6, "unit": "h"},
      {"measurement": "bioavailability", "setting": "[2]; previous studies [4]", "value": "poor"},
      {"measurement": "toxicity", "setting": "[2]; previous studies [4]", "value": "hepatic, cardiac and cerebellar toxicity"}
    ]}
  ]
}
